Assay results published in ChEMBL document CHEMBL3608284, “C4 phenyl aporphines with selective h5-HT(2B) receptor affinity” (Bioorg Med Chem Lett, 2015).

Columns and labels:
[1] = molecular target: T1, 5-hydroxytryptamine receptor 3A (Homo sapiens) (UniProt P46098); experiment: Displacement of [3H]LY278584 from 5HT3 receptor (unknown origin) at 10 uM
T1 sequence (whole entry): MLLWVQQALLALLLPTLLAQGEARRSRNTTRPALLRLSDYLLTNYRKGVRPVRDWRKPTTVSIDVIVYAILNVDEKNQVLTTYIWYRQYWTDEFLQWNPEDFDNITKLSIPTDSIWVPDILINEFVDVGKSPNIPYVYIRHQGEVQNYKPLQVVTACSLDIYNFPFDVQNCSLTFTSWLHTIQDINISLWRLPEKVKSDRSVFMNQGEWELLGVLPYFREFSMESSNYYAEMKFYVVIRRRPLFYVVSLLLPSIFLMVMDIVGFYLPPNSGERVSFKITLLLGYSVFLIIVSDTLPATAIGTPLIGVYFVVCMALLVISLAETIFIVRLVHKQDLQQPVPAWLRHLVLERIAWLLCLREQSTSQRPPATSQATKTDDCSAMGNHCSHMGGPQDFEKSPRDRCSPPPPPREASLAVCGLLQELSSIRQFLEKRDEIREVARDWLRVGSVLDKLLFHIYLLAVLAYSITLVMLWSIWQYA

[2] = molecular target: D(2) dopamine receptor (Homo sapiens) (UniProt P14416); experiment: Binding affinity to dopamine D2 receptor (unknown origin) at 10 uM
[3] = molecular target: Alpha-1A adrenergic receptor (Homo sapiens) (UniProt P35348); experiment: Binding affinity to alpha1A adrenoceptor (unknown origin) at 10 uM
[4] = molecular target: 5-hydroxytryptamine receptor 7 (Homo sapiens) (UniProt P34969); experiment: Displacement of [3H]LSD from 5HT7 receptor (unknown origin) at 10 uM
[5] = molecular target: Sodium-dependent dopamine transporter (Homo sapiens) (UniProt Q01959); experiment: Binding affinity to DAT (unknown origin) at 10 uM
[6] = molecular target: D(1A) dopamine receptor (Homo sapiens) (UniProt P21728); experiment: Binding affinity to dopamine D1 receptor (unknown origin) at 10 uM
[7] = molecular target: Histamine H3 receptor (Homo sapiens) (UniProt Q9Y5N1); experiment: Binding affinity to histamine H3 receptor (unknown origin) at 10 uM
[8] = molecular target: D(4) dopamine receptor (Homo sapiens) (UniProt P21917); experiment: Binding affinity to dopamine D4 receptor (unknown origin) at 10 uM
[9] = molecular target: Alpha-1B adrenergic receptor (Homo sapiens) (UniProt P35368); experiment: Binding affinity to alpha1B adrenoceptor (unknown origin) at 10 uM
[10] = molecular target: D(3) dopamine receptor (Homo sapiens) (UniProt P35462); experiment: Binding affinity to dopamine D3 receptor (unknown origin) at 10 uM
[11] = molecular target: Translocator protein (Homo sapiens, UniProt P30536); experiment: Binding affinity to PBR (unknown origin)
[12] = species: Rattus norvegicus; experiment: Binding affinity to benzodiazepine receptor in rat brain; type: tissue-based; conditions: concentration not given here
[13] = molecular target: Kappa-type opioid receptor (Homo sapiens) (UniProt P41145); experiment: Binding affinity to KOR (unknown origin) at 10 uM
[14] = molecular target: Beta-2 adrenergic receptor (Homo sapiens) (UniProt P07550); experiment: Binding affinity to beta2 adrenoceptor (unknown origin) at 10 uM
[15] = molecular target: 5-hydroxytryptamine receptor 1D (Homo sapiens) (UniProt P28221); experiment: Displacement of [3H]GR125743 from 5HT1D receptor (unknown origin) at 10 uM
[16] = molecular target: 5-hydroxytryptamine receptor 1B (Homo sapiens, UniProt P28222); experiment: Displacement of [3H]GR125743 from 5HT1B receptor (unknown origin) at 10 uM
[17] = molecular target: Cannabinoid receptor 2 (Homo sapiens) (UniProt P34972); experiment: Binding affinity to CB2 receptor (unknown origin) at 10 uM
[18] = molecular target: Beta-3 adrenergic receptor (Homo sapiens) (UniProt P13945); experiment: Binding affinity to beta3 adrenoceptor (unknown origin) at 10 uM
[19] = molecular target: Muscarinic acetylcholine receptor M2 (Homo sapiens) (UniProt P08172); experiment: Binding affinity to muscarinic M2 receptor (unknown origin) at 10 uM
[20] = molecular target: T2, 5-hydroxytryptamine receptor 2C (Homo sapiens) (UniProt P28335); experiment: Displacement of [3H]mesulergine from 5HT2C receptor (unknown origin) at 10 uM
T2 sequence (whole entry): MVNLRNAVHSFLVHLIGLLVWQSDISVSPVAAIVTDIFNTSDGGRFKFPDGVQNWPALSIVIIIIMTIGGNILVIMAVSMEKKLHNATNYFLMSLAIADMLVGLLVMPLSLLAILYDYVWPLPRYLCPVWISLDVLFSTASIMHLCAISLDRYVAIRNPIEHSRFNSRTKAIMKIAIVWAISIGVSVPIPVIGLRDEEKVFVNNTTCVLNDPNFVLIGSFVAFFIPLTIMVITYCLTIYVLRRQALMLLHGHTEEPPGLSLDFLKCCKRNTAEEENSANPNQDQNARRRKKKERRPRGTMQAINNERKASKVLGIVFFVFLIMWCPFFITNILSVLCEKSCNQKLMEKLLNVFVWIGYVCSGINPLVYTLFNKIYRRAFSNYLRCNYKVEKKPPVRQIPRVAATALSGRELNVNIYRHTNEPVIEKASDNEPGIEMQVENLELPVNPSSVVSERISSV

[21] = molecular target: Glutamate NMDA receptor; GRIN1/GRIN2A (Homo sapiens) (UniProt Q05586+Q12879); experiment: Binding affinity to NMDA receptor (unknown origin) at 10 uM; type: protein-complex assay
[22] = molecular target: 5-hydroxytryptamine receptor 1E (Homo sapiens) (UniProt P28566); experiment: Displacement of [3H]5HT from 5HT1E receptor (unknown origin) at 10 uM
[23] = molecular target: Alpha-1D adrenergic receptor (Homo sapiens) (UniProt P25100); experiment: Binding affinity to alpha1D adrenoceptor (unknown origin) at 10 uM
[24] = molecular target: Beta-1 adrenergic receptor (Homo sapiens) (UniProt P08588); experiment: Binding affinity to beta1 adrenoceptor (unknown origin) at 10 uM
[25] = molecular target: Alpha-2C adrenergic receptor (Homo sapiens, UniProt P18825); experiment: Binding affinity to alpha2C adrenoceptor (unknown origin)
[26] = molecular target: Sodium-dependent noradrenaline transporter (Homo sapiens) (UniProt P23975); experiment: Binding affinity to NET (unknown origin) at 10 uM
[27] = molecular target: Delta-type opioid receptor (Homo sapiens) (UniProt P41143); experiment: Binding affinity to DOR (unknown origin) at 10 uM
[28] = molecular target: Muscarinic acetylcholine receptor M1 (Homo sapiens, UniProt P11229); experiment: Binding affinity to muscarinic M1 receptor (unknown origin)
[29] = molecular target: D(1B) dopamine receptor (Homo sapiens) (UniProt P21918); experiment: Binding affinity to dopamine D5 receptor (unknown origin) at 10 uM
[30] = molecular target: Muscarinic acetylcholine receptor M4 (Homo sapiens) (UniProt P08173); experiment: Binding affinity to muscarinic M4 receptor (unknown origin) at 10 uM
[31] = molecular target: Sigma non-opioid intracellular receptor 1 (Homo sapiens) (UniProt Q99720); experiment: Binding affinity to sigma-1 receptor (unknown origin) at 10 uM
Chain of Sigma non-opioid intracellular receptor 1 (Homo sapiens) (Q99720 whole entry): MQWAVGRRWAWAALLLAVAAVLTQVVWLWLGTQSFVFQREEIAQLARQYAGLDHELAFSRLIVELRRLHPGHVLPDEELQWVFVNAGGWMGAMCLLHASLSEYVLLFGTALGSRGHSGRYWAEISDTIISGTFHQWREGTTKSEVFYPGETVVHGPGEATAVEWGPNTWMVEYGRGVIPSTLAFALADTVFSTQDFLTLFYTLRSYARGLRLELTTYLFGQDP

Chain of Beta-3 adrenergic receptor (Homo sapiens) (P13945 whole entry, looked up): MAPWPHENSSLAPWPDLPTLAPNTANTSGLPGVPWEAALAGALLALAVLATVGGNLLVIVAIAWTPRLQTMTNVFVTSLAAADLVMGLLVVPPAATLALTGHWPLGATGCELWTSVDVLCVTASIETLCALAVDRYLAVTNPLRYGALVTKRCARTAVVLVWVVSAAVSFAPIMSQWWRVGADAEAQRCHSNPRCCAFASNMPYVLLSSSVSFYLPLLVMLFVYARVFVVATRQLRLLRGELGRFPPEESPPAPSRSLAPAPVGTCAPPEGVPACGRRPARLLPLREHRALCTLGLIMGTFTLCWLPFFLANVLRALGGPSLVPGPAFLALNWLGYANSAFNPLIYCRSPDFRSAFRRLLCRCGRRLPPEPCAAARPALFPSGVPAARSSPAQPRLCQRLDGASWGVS
Chain of 5-hydroxytryptamine receptor 1D (Homo sapiens) (P28221 whole entry): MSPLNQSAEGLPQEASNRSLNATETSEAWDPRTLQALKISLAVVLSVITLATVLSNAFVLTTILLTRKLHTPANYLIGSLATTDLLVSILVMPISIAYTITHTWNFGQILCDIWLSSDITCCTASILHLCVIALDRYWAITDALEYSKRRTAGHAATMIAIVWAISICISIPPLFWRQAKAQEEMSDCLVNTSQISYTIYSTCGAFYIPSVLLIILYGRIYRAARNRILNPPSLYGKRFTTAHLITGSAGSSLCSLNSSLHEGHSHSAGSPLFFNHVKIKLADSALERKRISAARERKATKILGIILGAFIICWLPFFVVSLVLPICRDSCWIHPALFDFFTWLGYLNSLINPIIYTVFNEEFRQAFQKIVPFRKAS
Chain of Muscarinic acetylcholine receptor M2 (Homo sapiens) (P08172 whole entry): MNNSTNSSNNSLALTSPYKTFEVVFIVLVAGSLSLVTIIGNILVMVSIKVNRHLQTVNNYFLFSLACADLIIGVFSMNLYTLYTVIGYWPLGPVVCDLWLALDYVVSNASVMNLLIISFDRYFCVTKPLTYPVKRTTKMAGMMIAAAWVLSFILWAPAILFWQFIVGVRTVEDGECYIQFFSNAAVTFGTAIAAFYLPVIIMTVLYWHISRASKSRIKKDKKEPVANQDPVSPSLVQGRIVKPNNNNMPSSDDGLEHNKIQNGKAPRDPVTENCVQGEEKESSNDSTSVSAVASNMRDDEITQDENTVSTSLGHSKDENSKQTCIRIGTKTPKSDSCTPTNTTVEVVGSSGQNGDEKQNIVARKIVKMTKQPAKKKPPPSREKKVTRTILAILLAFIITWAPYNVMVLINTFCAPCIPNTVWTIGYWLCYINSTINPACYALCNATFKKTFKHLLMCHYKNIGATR
Chain of D(1A) dopamine receptor (Homo sapiens) (P21728 whole entry): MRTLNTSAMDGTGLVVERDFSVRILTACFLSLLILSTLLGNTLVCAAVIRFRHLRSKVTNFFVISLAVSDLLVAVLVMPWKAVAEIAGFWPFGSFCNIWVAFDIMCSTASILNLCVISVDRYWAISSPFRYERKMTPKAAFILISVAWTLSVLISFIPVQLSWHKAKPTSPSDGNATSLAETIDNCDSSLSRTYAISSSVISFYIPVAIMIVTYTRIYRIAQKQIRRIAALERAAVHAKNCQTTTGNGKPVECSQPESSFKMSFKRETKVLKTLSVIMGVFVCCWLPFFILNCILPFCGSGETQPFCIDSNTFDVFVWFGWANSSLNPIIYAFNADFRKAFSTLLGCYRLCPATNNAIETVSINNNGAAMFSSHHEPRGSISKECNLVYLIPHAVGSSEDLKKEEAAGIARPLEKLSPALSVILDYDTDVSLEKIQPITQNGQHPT
Chain of Alpha-2C adrenergic receptor (P18825 whole entry): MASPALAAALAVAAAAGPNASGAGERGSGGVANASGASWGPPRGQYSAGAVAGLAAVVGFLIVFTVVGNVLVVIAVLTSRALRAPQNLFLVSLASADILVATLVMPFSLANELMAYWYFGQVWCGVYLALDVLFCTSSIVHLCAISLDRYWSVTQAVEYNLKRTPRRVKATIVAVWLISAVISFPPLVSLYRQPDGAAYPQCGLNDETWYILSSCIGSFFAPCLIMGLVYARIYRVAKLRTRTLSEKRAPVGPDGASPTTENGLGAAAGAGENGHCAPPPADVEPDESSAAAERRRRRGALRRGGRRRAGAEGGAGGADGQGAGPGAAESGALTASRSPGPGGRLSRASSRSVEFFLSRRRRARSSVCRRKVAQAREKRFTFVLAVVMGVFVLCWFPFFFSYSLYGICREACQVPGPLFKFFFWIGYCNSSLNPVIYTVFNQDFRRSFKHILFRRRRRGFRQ
Chain of 5-hydroxytryptamine receptor 1B (P28222 whole entry): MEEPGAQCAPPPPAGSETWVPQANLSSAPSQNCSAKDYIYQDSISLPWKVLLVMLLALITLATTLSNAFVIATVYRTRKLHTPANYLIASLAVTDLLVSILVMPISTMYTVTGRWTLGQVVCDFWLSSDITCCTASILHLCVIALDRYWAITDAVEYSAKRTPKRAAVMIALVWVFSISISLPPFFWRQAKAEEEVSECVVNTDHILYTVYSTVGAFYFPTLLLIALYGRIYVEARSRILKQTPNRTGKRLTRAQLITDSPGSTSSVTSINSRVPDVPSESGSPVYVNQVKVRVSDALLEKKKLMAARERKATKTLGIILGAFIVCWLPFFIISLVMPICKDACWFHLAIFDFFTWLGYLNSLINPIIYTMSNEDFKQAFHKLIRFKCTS
Chain of Sodium-dependent noradrenaline transporter (Homo sapiens) (P23975 whole entry): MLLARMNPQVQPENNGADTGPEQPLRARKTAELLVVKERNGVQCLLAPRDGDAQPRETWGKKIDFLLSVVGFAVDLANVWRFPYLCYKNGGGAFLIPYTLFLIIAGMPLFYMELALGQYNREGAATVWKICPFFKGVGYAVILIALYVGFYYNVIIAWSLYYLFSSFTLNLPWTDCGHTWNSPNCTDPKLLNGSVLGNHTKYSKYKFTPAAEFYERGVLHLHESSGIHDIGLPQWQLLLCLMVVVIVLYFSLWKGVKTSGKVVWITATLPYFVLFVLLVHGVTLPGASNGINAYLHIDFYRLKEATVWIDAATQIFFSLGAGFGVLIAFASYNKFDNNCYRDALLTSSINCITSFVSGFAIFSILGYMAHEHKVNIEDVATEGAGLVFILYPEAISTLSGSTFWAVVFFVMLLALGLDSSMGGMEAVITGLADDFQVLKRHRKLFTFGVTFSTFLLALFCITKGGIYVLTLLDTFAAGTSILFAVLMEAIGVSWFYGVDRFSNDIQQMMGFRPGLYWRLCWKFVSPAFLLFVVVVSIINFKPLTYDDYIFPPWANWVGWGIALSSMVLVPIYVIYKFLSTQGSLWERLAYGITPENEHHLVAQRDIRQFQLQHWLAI
Chain of Beta-2 adrenergic receptor (Homo sapiens) (P07550 whole entry, looked up): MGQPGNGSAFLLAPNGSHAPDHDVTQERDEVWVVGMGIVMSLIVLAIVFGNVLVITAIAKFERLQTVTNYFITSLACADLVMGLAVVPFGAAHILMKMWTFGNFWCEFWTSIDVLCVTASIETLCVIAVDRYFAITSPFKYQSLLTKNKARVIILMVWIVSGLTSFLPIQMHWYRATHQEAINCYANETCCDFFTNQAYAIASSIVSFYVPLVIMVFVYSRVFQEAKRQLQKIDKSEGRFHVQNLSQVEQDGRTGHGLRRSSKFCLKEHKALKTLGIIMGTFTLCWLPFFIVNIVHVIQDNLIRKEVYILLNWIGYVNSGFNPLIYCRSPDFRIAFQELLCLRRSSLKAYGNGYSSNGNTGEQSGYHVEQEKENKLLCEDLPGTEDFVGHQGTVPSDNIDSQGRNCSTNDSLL
Chain of D(1B) dopamine receptor (Homo sapiens) (P21918 whole entry): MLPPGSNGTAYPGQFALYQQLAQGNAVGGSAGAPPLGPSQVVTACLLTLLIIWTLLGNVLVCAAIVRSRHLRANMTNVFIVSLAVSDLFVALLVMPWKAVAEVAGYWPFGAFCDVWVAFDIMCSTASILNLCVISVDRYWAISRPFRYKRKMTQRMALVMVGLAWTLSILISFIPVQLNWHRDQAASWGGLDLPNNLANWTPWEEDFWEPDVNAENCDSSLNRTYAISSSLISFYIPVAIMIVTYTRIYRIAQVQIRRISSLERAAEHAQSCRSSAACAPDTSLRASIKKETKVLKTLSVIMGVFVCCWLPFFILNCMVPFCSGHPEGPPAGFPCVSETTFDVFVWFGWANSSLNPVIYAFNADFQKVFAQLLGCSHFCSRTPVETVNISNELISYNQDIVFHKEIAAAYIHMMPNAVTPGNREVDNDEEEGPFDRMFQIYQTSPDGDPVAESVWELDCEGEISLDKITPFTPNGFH
Chain of Alpha-1B adrenergic receptor (Homo sapiens) (P35368 whole entry): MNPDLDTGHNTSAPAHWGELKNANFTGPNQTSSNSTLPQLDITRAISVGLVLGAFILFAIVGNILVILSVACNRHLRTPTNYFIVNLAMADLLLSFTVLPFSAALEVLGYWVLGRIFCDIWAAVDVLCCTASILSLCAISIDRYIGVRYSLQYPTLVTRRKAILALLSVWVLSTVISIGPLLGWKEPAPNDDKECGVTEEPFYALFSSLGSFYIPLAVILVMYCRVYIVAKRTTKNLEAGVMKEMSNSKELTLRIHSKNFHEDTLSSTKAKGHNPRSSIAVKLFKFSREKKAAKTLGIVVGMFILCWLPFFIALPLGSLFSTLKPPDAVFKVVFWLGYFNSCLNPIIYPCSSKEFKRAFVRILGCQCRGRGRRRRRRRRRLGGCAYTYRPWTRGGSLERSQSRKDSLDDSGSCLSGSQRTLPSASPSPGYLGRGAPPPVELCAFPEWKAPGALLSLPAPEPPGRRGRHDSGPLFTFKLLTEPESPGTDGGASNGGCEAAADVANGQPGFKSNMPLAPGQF

COc1cc2c3c(c1OC)-c1cc4c(cc1CC3N(C)CC2c1ccccc1)OCO4 (stereo unspecified)
inhibition [1]: 8%
inhibition [2]: < 50%
inhibition [3]: < 50%
inhibition [4]: 36.1%
inhibition [5]: < 50%
inhibition [6]: < 50%
inhibition [7]: < 50%
inhibition [8]: < 50%
inhibition [9]: < 50%
inhibition [10]: < 50%
Ki [11]: 2900 nM
inhibition [12]: < 50%
inhibition [13]: < 50%
inhibition [14]: < 50%
inhibition [15]: 34.5%
inhibition [16]: 22.6%
inhibition [17]: < 50%
inhibition [18]: < 50%
inhibition [19]: < 50%
inhibition [20]: 31.9%
inhibition [21]: < 50%
inhibition [22]: 10.1%
inhibition [23]: < 50%
inhibition [24]: < 50%
Ki [25]: 433 nM
inhibition [26]: < 50%
inhibition [27]: < 50%
Ki [28]: > 10000 nM
inhibition [29]: < 50%
inhibition [30]: < 50%
inhibition [31]: < 50%
